According to US10316034B2, “Pharmaceutical salt forms of an inhibitor of semicarbazide-sensitive amine oxidase (SSAO)” (BENEVOLENTAI CAMBRIDGE LIMITED, priority 2015, dated 2019):
Entries after “also recorded” stand apart in the source; their conditions may differ. Where two headings read alike, the source gives them in different places. Values belong to the compound of their own block, whether it stands above or below them.

Experiments:
Assay type in all cases: physicochemical
[1] = Hygroscopicity on storage at controlled temperature and relative humidity
Protocol: The four crystalline salts were tested in order to determine their ease of handling, hygroscopicity, and thermal stability. The hydrochloride and phosphate salts have the advantage of improved handling properties over the free base glass/gum by virtue of their crystallinity. […] Both salts deliquesced on overnight storage at 40° C. in an environment having 75% relative humidity.
The mesylate and sulphate salts have the advantage of improved handling properties over the free base gum by virtue of their crystallinity. […] The mesylate salt deliquesced following storage for 3 days at 40° C. in an environment having 75% relative humidity. The sulphate salt was unchanged after storage for 7 days at 40° C. in an environment having 75% relative humidity.

[2] = Stability during long term storage, assessed by HPLC; details: GMP-type packaging with desiccant
Protocol: Purity analysis was performed on an Agilent HP1100 series system equipped with a diode array detector and using ChemStation software vB.02.01-SR1 using the method detailed below.
(§1) (3S)-Tetrahydrofuran-3-yl (4S)-4-isopropyl-1,4,6,7-tetrahydro-5H-imidazo[4,5-c]-pyridine-5-carboxylate mesylate was also assessed for stability and hygroscopicity when dispensed in 3 g aliquots in double LDPE liners, sealed with cable tie and placed, with a desiccant pouch into a foil bag, which was subsequently heat-sealed. The foil bag was then placed into an HDPE keg fitted with an HDPE lid. These conditions mirror typical GMP level storage conditions. Stability was assessed by HPLC and hygroscopicity was assessed by Karl Fisher (KF) titration.

[3] = Hygroscopicity during long term storage, assessed by Karl Fisher (KF) titration; details: GMP-type packaging with desiccant
Protocol: The water content of each sample was measured on a Mettler Toledo DL39 Coulometer using Hydranal Coulomat AG reagent and an argon purge. Weighed solid samples were introduced into the vessel on a platinum TGA pan which was connected to a subaseal to avoid water ingress. Approx 10 mg of sample was used per titration and duplicate determinations were made.
as §1

[4] = overnight storage at 40° C., 75% relative humidity
[5] = after 6 months at 40° C./75% RH

Hygroscopicity (in words) [1]: hygroscopic
SMILES: CC(C)[C@H]1c2[nH]cnc2CCN1C(=O)O[C@H]1CCOC1 [Free base, (3S)-Tetrahydrofuran-3-yl (4S)-4-isopropyl-1,4,6,7-tetrahydro-5H-imidazo[4,5-c]pyridine-5-carboxylate]

SMILES: CC(C)[C@H]1c2nc[nH]c2CCN1C(=O)O[C@H]1CCOC1.Cl [Hydrochloride salt, (3S)-Tetrahydrofuran-3-yl (4S)-4-isopropyl-1,4,6,7-tetrahydro-5H-imidazo[4,5-c]-pyridine-5-carboxylate hydrochloride]
Hygroscopicity (in words) ([1]; hydrochloride): somewhat hygroscopic; also recorded: highly hygroscopic
Hygroscopicity [1, 4]: deliquesced

SMILES: CC(C)[C@H]1c2nc[nH]c2CCN1C(=O)O[C@H]1CCOC1.CS(=O)(=O)O [Mesylate salt, (3S)-Tetrahydrofuran-3-yl (4S)-4-isopropyl-1,4,6,7-tetrahydro-5H-imidazo[4,5-c]-pyridine-5-carboxylate mesylate]
Degradation (HPLC) [2, 5]: 0.1%
Degradation (HPLC) ([2]; over 3 years at 25° C./60% RH): 0.1%
Hygroscopicity ([1]; 40° C./75% RH after 3 days, listed as mesylate salt, mesylate): deliquesced
Water uptake (KF) [3, 5]: 0.1%
Water uptake (KF) ([3]; over 3 years at 25° C./60% RH): no water uptake

SMILES: CC(C)[C@H]1c2nc[nH]c2CCN1C(=O)O[C@H]1CCOC1.O=P(O)(O)O [Phosphate salt, (3S)-Tetrahydrofuran-3-yl (4S)-4-isopropyl-1,4,6,7-tetrahydro-5H-imidazo[4,5-c]-pyridine-5-carboxylate phosphate]
Hygroscopicity [1, 4]: deliquesced
Hygroscopicity (in words) ([1]; phosphate): somewhat hygroscopic; also recorded: highly hygroscopic

SMILES: CC(C)[C@H]1c2nc[nH]c2CCN1C(=O)O[C@H]1CCOC1.O.O=S(=O)(O)O [Sulfate salt (.1.5H2O), (3S)-Tetrahydrofuran-3-yl (4S)-4-isopropyl-1,4,6,7-tetrahydro-5H-imidazo[4,5-c]-pyridine-5-carboxylate sulphate hydrate]
Hygroscopicity ([1]; 40° C./75% RH for up to 7 days, listed as sulphate salt, sulphate hydrate): unchanged
Hygroscopicity ([1]; 40° C./75% RH for up to 7 days, sulphate hydrate): No change at 40° C./
